According to PubChem BioAssay (NCI):
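Cells were grown in 96-well plates and exposed to each compound for 48 hours at five concentrations; endpoints were interpolated linearly between bracketing concentrations, or set to the highest concentration if not reached. Here, GI50 denotes the concentration required for 50% inhibition of growth. TGI is the concentration that stops growth completely.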

Columns and labels:
Assay in all cases: NCI anticancer screen, dose series, 48 h
PC-3 prostate = system: PC-3 prostate
MDA-MB-435 = system: MDA-MB-435
SNB-19 CNS = system: SNB-19 CNS
OVCAR-5 ovarian = system: OVCAR-5 ovarian
RXF 393 renal = system: RXF 393 renal
OVCAR-3 ovarian = system: OVCAR-3 ovarian
HS 578T breast = system: HS 578T breast
SF-539 CNS = system: SF-539 CNS
SN12C renal = system: SN12C renal
NCI-H226 lung = system: NCI-H226 lung
HOP-62 NSCLC = system: HOP-62 NSCLC
HCT-116 colon = system: HCT-116 colon
MALME-3M melanoma = system: MALME-3M melanoma
OVCAR-8 ovarian = system: OVCAR-8 ovarian
SNB-75 CNS = system: SNB-75 CNS
BT-549 breast = system: BT-549 breast
LOX IMVI melanoma = system: LOX IMVI melanoma
UACC-257 melanoma = system: UACC-257 melanoma
A498 renal = system: A498 renal
DU-145 prostate = system: DU-145 prostate
TK-10 renal = system: TK-10 renal
HOP-92 NSCLC = system: HOP-92 NSCLC
UACC-62 melanoma = system: UACC-62 melanoma
HL-60(TB) leukemia = system: HL-60(TB) leukemia
KM12 colon = system: KM12 colon
NCI/ADR-RES ovarian = system: NCI/ADR-RES ovarian
SF-268 CNS = system: SF-268 CNS
786-0 renal = system: 786-0 renal
COLO 205 colon = system: COLO 205 colon
MOLT-4 leukemia = system: MOLT-4 leukemia
M14 melanoma = system: M14 melanoma
SF-295 CNS = system: SF-295 CNS
CAKI-1 renal = system: CAKI-1 renal
NCI-H23 lung = system: NCI-H23 lung
OVCAR-4 ovarian = system: OVCAR-4 ovarian
MDA-MB-231 breast = system: MDA-MB-231 breast
SW-620 colon = system: SW-620 colon
T-47D breast = system: T-47D breast
HCT-15 colon = system: HCT-15 colon
SK-OV-3 ovarian = system: SK-OV-3 ovarian
K-562 leukemia = system: K-562 leukemia
SK-MEL-2 melanoma = system: SK-MEL-2 melanoma
SK-MEL-5 melanoma = system: SK-MEL-5 melanoma
EKVX NSCLC = system: EKVX NSCLC
IGROV1 ovarian = system: IGROV1 ovarian
A549 NSCLC = system: A549 NSCLC
HCC-2998 colon = system: HCC-2998 colon
SK-MEL-28 melanoma = system: SK-MEL-28 melanoma
U251 CNS = system: U251 CNS
NCI-H460 lung = system: NCI-H460 lung
ACHN renal = system: ACHN renal
UO-31 renal = system: UO-31 renal
HT29 colon = system: HT29 colon

`CN1CCN(c2ccc(NC3=C(Cl)C(=O)c4ncccc4C3=O)cc2C#N)CC1` showed a GI50 (PC-3 prostate) of 2.29 µM, a TGI (PC-3 prostate) of 9.34 µM and a GI50 (MDA-MB-435) of 1.91 µM. The TGI (MDA-MB-435) was 3.67 µM, the GI50 (SNB-19 CNS) was 11 µM and the TGI (SNB-19 CNS) was 23 µM. For the same compound, the GI50 (OVCAR-5 ovarian) was 2.75 µM, the TGI (OVCAR-5 ovarian) was 7.3 µM and the GI50 (RXF 393 renal) was 1.4 µM. It also gave a TGI (RXF 393 renal) of 2.73 µM, a GI50 (OVCAR-3 ovarian) of 0.229 µM and a TGI (OVCAR-3 ovarian) of 1 µM. For the same compound, the GI50 (HS 578T breast) was 2.14 µM, the TGI (HS 578T breast) was 5.47 µM and the GI50 (SF-539 CNS) was 4.44 µM. For the same compound, the TGI (SF-539 CNS) was 15 µM, the GI50 (SN12C renal) was 1.55 µM and the TGI (SN12C renal) was 3.25 µM. For the same compound, the GI50 (NCI-H226 lung) was 16.8 µM, the TGI (NCI-H226 lung) was 36.3 µM and the GI50 (HOP-62 NSCLC) was 11.8 µM. For the same compound, the TGI (HOP-62 NSCLC) was 34.7 µM, the GI50 (HCT-116 colon) was 1.72 µM and the TGI (HCT-116 colon) was 3.36 µM. For the same compound, the GI50 (MALME-3M melanoma) was 1.47 µM, the TGI (MALME-3M melanoma) was 2.81 µM and the GI50 (OVCAR-8 ovarian) was 2.59 µM. The TGI (OVCAR-8 ovarian) was 9.37 µM, the GI50 (SNB-75 CNS) was 11.7 µM and the TGI (SNB-75 CNS) was 24.8 µM. The GI50 (BT-549 breast) was 2.25 µM, the TGI (BT-549 breast) was 5.95 µM and the GI50 (LOX IMVI melanoma) was 1.51 µM. For the same compound, the TGI (LOX IMVI melanoma) was 3.19 µM, the GI50 (UACC-257 melanoma) was 1.73 µM and the TGI (UACC-257 melanoma) was 3.29 µM. For the same compound, the GI50 (A498 renal) was 11.7 µM, the TGI (A498 renal) was 25.3 µM and the GI50 (DU-145 prostate) was 2.99 µM. It also gave a TGI (DU-145 prostate) of 15.5 µM, a GI50 (TK-10 renal) of 2.09 µM and a TGI (TK-10 renal) of 4.24 µM. For the same compound, the GI50 (HOP-92 NSCLC) was 1.82 µM, the TGI (HOP-92 NSCLC) was 3.45 µM and the GI50 (UACC-62 melanoma) was 1.78 µM. It also gave a TGI (UACC-62 melanoma) of 3.61 µM, a GI50 (HL-60(TB) leukemia) of 0.316 µM and a TGI (HL-60(TB) leukemia) of 1.24 µM. It also gave a GI50 (KM12 colon) of 10.8 µM, a TGI (KM12 colon) of 25.4 µM and a GI50 (NCI/ADR-RES ovarian) of 4.56 µM. For the same compound, the TGI (NCI/ADR-RES ovarian) was 24.3 µM, the GI50 (SF-268 CNS) was 2.09 µM and the TGI (SF-268 CNS) was 5.27 µM. For the same compound, the GI50 (786-0 renal) was 1.72 µM, the TGI (786-0 renal) was 3.23 µM and the GI50 (COLO 205 colon) was 2.06 µM. The TGI (COLO 205 colon) was 4.51 µM, the GI50 (MOLT-4 leukemia) was 1.04 µM and the TGI (MOLT-4 leukemia) was 5.31 µM. For the same compound, the GI50 (M14 melanoma) was 1.74 µM, the TGI (M14 melanoma) was 3.57 µM and the GI50 (SF-295 CNS) was 15 µM. For the same compound, the TGI (SF-295 CNS) was 28.8 µM, the GI50 (CAKI-1 renal) was 1.09 µM and the TGI (CAKI-1 renal) was 2.31 µM. It also gave a GI50 (NCI-H23 lung) of 2.15 µM, a TGI (NCI-H23 lung) of 6.22 µM and a GI50 (OVCAR-4 ovarian) of 1.09 µM. It also gave a TGI (OVCAR-4 ovarian) of 2.36 µM, a GI50 (MDA-MB-231 breast) of 1.57 µM and a TGI (MDA-MB-231 breast) of 4.17 µM. The GI50 (SW-620 colon) was 1.49 µM, the TGI (SW-620 colon) was 3.62 µM and the GI50 (T-47D breast) was 1.76 µM. It also gave a TGI (T-47D breast) of 5.26 µM, a GI50 (HCT-15 colon) of 1.64 µM and a TGI (HCT-15 colon) of 3.53 µM. It also gave a GI50 (SK-OV-3 ovarian) of 13.8 µM, a TGI (SK-OV-3 ovarian) of 27.5 µM and a GI50 (K-562 leukemia) of 0.312 µM. It also gave a TGI (K-562 leukemia) of over 100 µM, a GI50 (SK-MEL-2 melanoma) of 2.26 µM and a TGI (SK-MEL-2 melanoma) of 4.69 µM. The GI50 (SK-MEL-5 melanoma) was 1.83 µM, the TGI (SK-MEL-5 melanoma) was 3.38 µM and the GI50 (EKVX NSCLC) was 2.78 µM. The TGI (EKVX NSCLC) was 8.72 µM, the GI50 (IGROV1 ovarian) was 1.34 µM and the TGI (IGROV1 ovarian) was 2.82 µM. The GI50 (A549 NSCLC) was 17.4 µM, the TGI (A549 NSCLC) was 33.7 µM and the GI50 (HCC-2998 colon) was 2.34 µM. The TGI (HCC-2998 colon) was 7.03 µM, the GI50 (SK-MEL-28 melanoma) was 1.86 µM and the TGI (SK-MEL-28 melanoma) was 3.26 µM. For the same compound, the GI50 (U251 CNS) was 2.01 µM, the TGI (U251 CNS) was 4.44 µM and the GI50 (NCI-H460 lung) was 13 µM. It also gave a TGI (NCI-H460 lung) of 30.9 µM, a GI50 (ACHN renal) of 1.15 µM and a TGI (ACHN renal) of 2.36 µM. For the same compound, the GI50 (UO-31 renal) was 1.34 µM, the TGI (UO-31 renal) was 2.61 µM and the GI50 (HT29 colon) was 2.16 µM. It also gave a TGI (HT29 colon) of 5.14 µM.
